Test results: publication PMC10453993 (Emerging Microbes & Infections, 2023)

What was measured:
[1] = molecular target: T1, recombinant SARS-CoV-2 3CLpro (Severe acute respiratory syndrome coronavirus 2, UniProt P0DTD1); assay: biochemical
[2] = system: SARS-CoV-2 Omicron XBB.1.5; assay: microbe, parasite or virus in culture; assay type: cell-based; details: Severe acute respiratory syndrome coronavirus 2, Caco-2, read-out: XBB.1.5 EC50, nucleocapsid
[3] = system: SARS-CoV-2 B.1.617.2 Delta; assay: microbe, parasite or virus in culture; assay type: cell-based; details: Severe acute respiratory syndrome coronavirus 2, Calu-3, read-out: Delta EC50
[4] = system: SARS-CoV-2 Omicron BQ.1.1; assay: microbe, parasite or virus in culture; assay type: cell-based; details: Severe acute respiratory syndrome coronavirus 2, Calu-3, read-out: BQ.1.1 EC50 Calu-3, nucleocapsid
SARS-CoV-2 Omicron BA.5 = assay: microbe, parasite or virus in culture; assay type: cell-based; details: Severe acute respiratory syndrome coronavirus 2, Calu-3, read-out: BA.5 EC50 Calu-3, nucleocapsid, Calu-3, nucleocapsid staining
HCoV-229E = assay: microbe, parasite or virus in culture; assay type: cell-based; details: Human coronavirus 229E, Caco-2, read-out: HCoV-229E EC50
[5] = molecular target: T1, recombinant SARS-CoV-2 3CLpro; assay: cell-based

SMILES: CN(C)c1ccc(N(Cc2cc(Cl)cs2)C(=O)Cc2cncc3c(O)cccc23)cc1 [C5b, N-((4-chlorothiophen-2-yl)methyl)-N-(4-(dimethylamino)phenyl)-2-(8-hydroxyisoquinolin-4-yl)acetamide]
- IC50 [1]: 4500 ± 1000 nM

SMILES: CN(C)c1ccc(N(Cc2cccc(Br)c2)C(=O)Cc2cncc3ccccc23)cc1 [C5e, N-(3-bromobenzyl)-N-(4-(dimethylamino)phenyl)-2-(isoquinolin-4-yl)acetamide]
- IC50 [1]: 1400 ± 800 nM

SMILES: CC(C)(C)[C@H](NC(=O)C(F)(F)F)C(=O)N1C[C@H]2[C@@H]([C@H]1C(=O)N[C@H](C#N)C[C@@H]1CCNC1=O)C2(C)C [C7, Nirmatrelvir, reference compound]
- EC50 [2]: 300 nM
- EC50 [3]: 1300 nM
- EC50 [4]: 400 nM
- EC50 (SARS-CoV-2 Omicron BA.5): 400 nM
- EC50 (HCoV-229E): 2000 ± 1200 nM

SMILES: COc1ccc(Cl)cc1CN(C(=O)Cc1cncc2ccccc12)c1ccc(N(C)C)cc1 [C5d, N-(5-chloro-2-methoxybenzyl)-N-(4-(dimethylamino)phenyl)-2-(isoquinolin-4-yl)acetamide]
- IC50 [1]: 2200 ± 700 nM

SMILES: C=CCC(c1cc(Cl)cs1)N(C(=O)Cc1cncc2ccccc12)c1ccc(N(C)C)cc1 (stereo not drawn) [C5c, N-(1-(4-chlorothiophen-2-yl)but-3-en-1-yl)-N-(4-(dimethylamino)phenyl)-2-(isoquinolin-4-yl)acetamide]
- IC50 [1]: 1400 ± 800 nM

SMILES: CC(C)(C)c1ccc(N(Cc2cc(Cl)cs2)C(=O)Cc2cncc3ccccc23)cc1 [C3, N-(4-(tert-butyl)phenyl)-N-((4-chlorothiophen-2-yl)methyl)-2-(isoquinolin-4-yl)acetamide]
- IC50 [5]: 1200 ± 1000 nM
- EC50 (HCoV-229E): 9600 ± 1000 nM
- IC50 [1]: 5000 ± 300 nM

SMILES: COc1ccc(N(Cc2cc(Cl)cs2)C(=O)Cc2cncc3ccccc23)cc1 [C2, N-((4-chlorothiophen-2-yl)methyl)-2-(isoquinolin-4-yl)-N-(4-methoxyphenyl)acetamide]
- IC50 [5]: 600 ± 200 nM
- EC50 (HCoV-229E): 5600 ± 1400 nM
- IC50 [1]: 8500 ± 1700 nM

SMILES: CN(C)c1ccc(N(Cc2cc(Cl)cs2)C(=O)Cc2cncc3ccccc23)cc1 [C5, N-((4-chlorothiophen-2-yl)methyl)-N-(4-(dimethylamino)phenyl)-2-(isoquinolin-4-yl)acetamide]
- EC50 [2]: 100 nM
- EC50 [3]: 3200 nM
- EC50 [4]: 300 nM
- EC50 (SARS-CoV-2 Omicron BA.5): 100 nM
- EC50 (HCoV-229E): 4200 ± 700 nM
- IC50 [1]: 900 ± 600 nM

SMILES: CSc1ccc(N(Cc2cc(Cl)cs2)C(=O)Cc2cncc3ccccc23)cc1 [C4, N-((4-chlorothiophen-2-yl)methyl)-2-(isoquinolin-4-yl)-N-(4-(methylthio)phenyl)acetamide]
- IC50 [5]: 600 ± 300 nM
- EC50 (HCoV-229E): 7900 ± 3800 nM
- IC50 [1]: 2300 ± 200 nM
